Source: patent US20240270751A1, “Pyrazolopyridinone Compounds” (BeiGene Ltd., priority 2021, published 2024)
pIC50: −log10 of the molar value.

How the values were obtained:
[1] = molecular target: DGKζ (Homo sapiens (Human), UniProt Q13574); test: Biochemical DGK IC50 assay, DGKζ ADP-Glo assay; details: 0.5 nM enzyme, 140 μM ATP, 80 μM DAG; read-out: DGKζ ADP-Glo assay IC50
Outline: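 ADP formation measured by ADP-Glo luminescence, with test compounds at final 1.55–10000 nM or 23.3–150000 nM. Enzyme: purified full-length human DGKζ from Sf9 insect cells; substrate: DAG/PS micelles in 25 mM HEPES pH 7.0, 0.5 mM EDTA, octyl glucoside.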

[2] = molecular target: DGKα (Homo sapiens (Human), UniProt P23743); test: Biochemical DGK IC50 assay, DGKα ADP-Glo assay; details: 7.5 nM enzyme, 140 μM ATP, 80 μM DAG
Chain of DGKα (P23743 whole entry): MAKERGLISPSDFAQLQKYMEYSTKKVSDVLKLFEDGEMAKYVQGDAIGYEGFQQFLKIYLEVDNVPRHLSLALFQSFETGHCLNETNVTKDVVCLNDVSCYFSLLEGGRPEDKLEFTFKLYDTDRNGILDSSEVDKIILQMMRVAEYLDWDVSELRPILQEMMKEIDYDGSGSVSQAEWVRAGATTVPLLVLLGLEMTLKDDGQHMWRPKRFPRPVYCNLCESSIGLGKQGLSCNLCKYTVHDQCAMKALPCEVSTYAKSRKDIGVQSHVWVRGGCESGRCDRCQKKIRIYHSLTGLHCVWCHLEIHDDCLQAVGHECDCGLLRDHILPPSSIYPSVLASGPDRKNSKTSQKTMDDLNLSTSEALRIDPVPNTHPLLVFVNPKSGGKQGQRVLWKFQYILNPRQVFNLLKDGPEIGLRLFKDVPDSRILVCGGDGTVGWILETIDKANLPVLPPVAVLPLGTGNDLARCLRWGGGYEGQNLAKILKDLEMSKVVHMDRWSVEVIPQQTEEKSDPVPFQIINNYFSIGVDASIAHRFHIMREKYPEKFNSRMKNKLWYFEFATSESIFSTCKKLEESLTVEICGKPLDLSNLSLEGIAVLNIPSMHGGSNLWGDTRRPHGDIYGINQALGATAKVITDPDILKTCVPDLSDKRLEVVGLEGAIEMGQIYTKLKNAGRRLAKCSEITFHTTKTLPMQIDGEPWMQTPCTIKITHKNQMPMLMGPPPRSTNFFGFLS
Outline: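 Compounds at final 1.55˜10000 nM or 23.3˜150000 nM were tested against full-length DGKα. Substrate was lipid micelles of DAG and PS resuspended in 25 mM HEPES pH 7.0 with 0.5 mM EDTA and 160 mM octyl β-D-glucopyranoside. ADP formed was detected by ADP-Glo.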

Chain of DGKζ (Q13574 other isoform, or with tags, fused parts or gaps): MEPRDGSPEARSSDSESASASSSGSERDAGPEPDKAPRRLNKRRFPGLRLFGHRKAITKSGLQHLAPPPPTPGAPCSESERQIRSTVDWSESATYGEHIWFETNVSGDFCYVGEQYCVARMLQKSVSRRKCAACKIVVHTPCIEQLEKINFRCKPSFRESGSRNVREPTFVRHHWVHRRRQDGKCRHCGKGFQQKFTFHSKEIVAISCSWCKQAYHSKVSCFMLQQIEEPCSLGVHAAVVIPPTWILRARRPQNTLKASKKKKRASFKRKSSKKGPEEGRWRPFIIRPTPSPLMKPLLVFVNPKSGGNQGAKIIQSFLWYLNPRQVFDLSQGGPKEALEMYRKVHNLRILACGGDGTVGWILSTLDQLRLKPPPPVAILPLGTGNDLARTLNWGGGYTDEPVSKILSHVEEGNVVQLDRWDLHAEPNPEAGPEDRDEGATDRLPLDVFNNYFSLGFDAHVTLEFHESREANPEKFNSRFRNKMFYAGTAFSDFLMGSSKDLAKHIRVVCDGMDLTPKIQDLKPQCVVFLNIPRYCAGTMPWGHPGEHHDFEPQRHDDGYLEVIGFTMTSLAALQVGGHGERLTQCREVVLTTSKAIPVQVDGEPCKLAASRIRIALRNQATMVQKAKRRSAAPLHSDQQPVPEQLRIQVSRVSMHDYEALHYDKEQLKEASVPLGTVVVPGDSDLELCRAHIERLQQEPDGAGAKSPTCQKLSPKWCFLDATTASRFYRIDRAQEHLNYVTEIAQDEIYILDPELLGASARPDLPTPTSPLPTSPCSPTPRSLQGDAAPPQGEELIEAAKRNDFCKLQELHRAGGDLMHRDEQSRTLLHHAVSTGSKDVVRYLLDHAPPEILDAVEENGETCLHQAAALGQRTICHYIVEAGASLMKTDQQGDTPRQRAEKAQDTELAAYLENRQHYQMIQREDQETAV

Compound | pIC50 [1] | pIC50 [2]
CC[C@H]1CN(C(C(=O)NCCOC)c2ccc(C(F)(F)F)cc2)[C@H](CC)CN1c1cc(=O)n(C)c2cn(CC#N)nc12 (stereo partly drawn) [Compound A296, 2-((2R,5S)-4-(2-(cyanomethyl)-4-methyl-5-oxo-4,5-dihydro-2H-pyrazolo[4,3-b]pyridin-7-yl)-2,5-diethylpiperazin-1-yl)-N-(2-methoxyethyl)-2-(4-(trifluoromethyl)phenyl)acetamide] | 6.72 | 5.41
CC=CCn1cc2c(n1)c(N1C[C@@H](C)N([C@@H](C)c3ccc4ncc(C)nc4c3)C[C@@H]1C)cc(=O)n2C [Compound A302, 2-(but-2-en-1-yl)-7-((2S,5R)-2,5-dimethyl-4-((S)-1-(3-methylquinoxalin-6-yl)ethyl)piperazin-1-yl)-4-methyl-2,4-dihydro-5H-pyrazolo[4,3-b]pyridin-5-one] | 7.17 | 4.45
COc1ccc(C(C)N2C[C@H](C)N(c3cc(=O)n(C)c4cn(CC#N)nc34)C[C@H]2C)cc1 (some centres unmarked) [Compound A38] | 6.21 | 6.05
CC[C@@H]1CN(c2nc(=O)[nH]c3cn(CC#N)nc23)[C@@H](C)CN1C(C)c1ccc2nccnc2c1 (single isomer, unassigned) [Compound A183b] | 5.68 | < 5.00
CC(c1ccc2nccnc2c1)N1C[C@H](C)N(c2cc(=O)n(C)c3c[nH]nc23)C[C@H]1C (stereo partly drawn) [Compound A1, 7-((2S,5R)-2,5-dimethyl-4-(1-(quinoxalin-6-yl)ethyl)piperazin-1-yl)-4-methyl-2,4-dihydro-5H-pyrazolo[4,3-b]pyridin-5-one] | < 3.82 | 5.74
CC[C@H]1CN(C(C)c2cnn(CC)c2C(F)(F)F)[C@H](CC)CN1c1cc(=O)n(C)c2cn(CC#N)nc12 (single isomer, unassigned) [Compound A119b] | 6.02 | 5.34
CC[C@H]1CN(C(C)c2nc3ccccc3n2CCO)[C@H](CC)CN1c1cc(=O)n(C)c2cn(CC#N)nc12 (some centres unmarked) [Compound A214] | 5.46 | < 5.00
CC[C@H]1CN(C(C)c2cc(C(F)(F)F)nn2CC)[C@H](CC)CN1c1cc(=O)n(C)c2cn(CC#N)nc12 (some centres unmarked) [Compound A210] | 6.43 | 4.95
CC(c1ccc2nccnc2c1)N1C[C@H](C)N(c2c(F)c(=O)n(C)c3cn(CC#N)nc23)C[C@H]1C (stereo partly drawn) [Compound A168, 2-(7-((2S,5R)-2,5-dimethyl-4-(1-(quinoxalin-6-yl)ethyl)piperazin-1-yl)-6-fluoro-4-methyl-5-oxo-4,5-dihydro-2H-pyrazolo[4,3-b]pyridin-2-yl)acetonitrile] | 7.55 | 5.22
CCOc1cc(F)ccc1C(C)N1C[C@H](CC)N(c2cc(=O)n(C)c3cn(CC#N)nc23)C[C@H]1CC (some centres unmarked) [Compound A141] | 6.16 | 5.18
CC[C@H]1CN(C(C)c2cccnc2C(F)(F)F)[C@H](CC)CN1c1cc(=O)n(C)c2cn(CC#N)nc12 (some centres unmarked) [Compound A217] | 6.42 | < 5.00
C[C@@H]1CN(c2c(C#N)c(=O)n(C)c3cn(CC#N)nc23)[C@@H](C)CN1[C@@H](C)c1ccc2nccnc2c1 [Compound A134, 2-(cyanomethyl)-7-((2S,5R)-2,5-dimethyl-4-((S)-1-(quinoxalin-6-yl)ethyl)piperazin-1-yl)-4-methyl-5-oxo-4,5-dihydro-2H-pyrazolo[4,3-b]pyridine-6-carbonitrile] | 7.46 | 5.71
CC[C@H]1CN(C(C)c2cnc3ccccc3n2)[C@H](CC)CN1c1cc(=O)n(C)c2cn(CC#N)nc12 (some centres unmarked) [Compound A55] | 8.05 | 7.66
CC[C@H]1CN(C(C)c2ccccc2OC(F)(F)F)[C@H](CC)CN1c1cc(=O)n(C)c2cn(CC#N)nc12 (some centres unmarked) [Compound A80] | 6.18 | < 5.00
CC[C@H]1CN(C2CCc3ccccc32)[C@H](CC)CN1c1cc(=O)n(C)c2cn(CC#N)nc12 (single isomer, unassigned) [Compound A149b] | 5.65 | 6.72
CC[C@H]1CN(C(C)c2cc3cnccc3cn2)[C@H](CC)CN1c1cc(=O)n(C)c2cn(CC#N)nc12 (single isomer, unassigned) [Compound A368b] | 6.42 | 7.04
CC[C@H]1CN(C(C)c2cccc(CO)c2)[C@H](CC)CN1c1cc(=O)n(C)c2cn(CC#N)nc12 (single isomer, unassigned) [Compound A121a] | 5.52 | 5.89
CC[C@H]1CN(C(C)c2nc3ccccc3s2)[C@H](CC)CN1c1cc(=O)n(C)c2cn(CC#N)nc12 (stereo partly drawn) [Compound A52, 2-(7-((2S,5R)-4-(1-(benzo[d]thiazol-2-yl)ethyl)-2,5-diethylpiperazin-1-yl)-4-methyl-5-oxo-4,5-dihydro-2H-pyrazolo[4,3-b]pyridin-2-yl)acetonitrile] | 7.14 | 7.51
C[C@@H]1CN(c2cc(=O)n(C)c3cn(CC#N)nc23)[C@@H](C)CN1[C@H](C)c1ccc2nccnc2c1 [Compound A2b, 2-(7-((2S,5R)-2,5-dimethyl-4-((R)-1-(quinoxalin-6-yl)ethyl)piperazin-1-yl)-4-methyl-5-oxo-4,5-dihydro-2H-pyrazolo[4,3-b]pyridin-2-yl)acetonitrile] | 4.89 | 4.72

Compound | pIC50 [1] | pIC50 [2]
CC[C@H]1CN(C(C)c2cn(CC)c(C)n2)[C@H](CC)CN1c1cc(=O)n(C)c2cn(CC#N)nc12 (some centres unmarked) [Compound A208] | < 5.00 | < 5.00
CC[C@H]1CN(C(C)c2ccc3nccnc3c2)[C@H](CC)CN1c1cc(=O)n(CC)c2cn(CC#N)nc12 (stereo partly drawn) [Compound A47, 2-(7-((2S,5R)-2,5-diethyl-4-(1-(quinoxalin-6-yl)ethyl)piperazin-1-yl)-4-ethyl-5-oxo-4,5-dihydro-2H-pyrazolo[4,3-b]pyridin-2-yl)acetonitrile] | 8.03 | 5.38
CC[C@H]1CN(C(C)c2cc(C(F)(F)F)nn2CC)[C@H](CC)CN1c1cc(=O)n(C)c2cn(CC#N)nc12 (some centres unmarked) [Compound A211] | 6.63 | 5.56
CC[C@H]1CN(C(C)c2ccc(F)cc2F)[C@H](CC)CN1c1cc(=O)n(C)c2cn(CC#N)nc12 (single isomer, unassigned) [Compound A132b] | 5.75 | 6.48
CC[C@H]1CN(C(C)c2cnc(C)n2CC)[C@H](CC)CN1c1cc(=O)n(C)c2cn(CC#N)nc12 (some centres unmarked) [Compound A219] | < 5.00 | < 5.00
CC[C@H]1CN(C(C)c2ccc(OC(F)F)nc2)[C@H](CC)CN1c1cc(=O)n(C)c2cn(CC#N)nc12 (single isomer, unassigned) [Compound A180a] | 7.82 | 6.14
CC[C@H]1CN(C(C)c2ccncc2)[C@H](CC)CN1c1cc(=O)n(C)c2cn(CC#N)nc12 (some centres unmarked) [Compound A86] | 5.71 | 7.66
CC#CCn1cc2c(n1)c(N1C[C@@H](C)N(C(C)c3ccc4c(c3)OC(C)(C)O4)C[C@@H]1C)cc(=O)n2C (stereo partly drawn) [Compound A390, 2-(but-2-yn-1-yl)-7-((2S,5R)-4-(1-(2,2-dimethylbenzo[d][1,3]dioxol-5-yl)ethyl)-2,5-dimethylpiperazin-1-yl)-4-methyl-2,4-dihydro-5H-pyrazolo[4,3-b]pyridin-5-one] | 6.31 | 5.34
CC(c1ccc2nccnc2c1)N1C[C@H](C)N(c2cc(=O)n(C)c3cn(CC4CO4)nc23)C[C@H]1C (some centres unmarked) [Compound A12] | 5.66 | < 3.82
CC[C@H]1CN(C(C)c2ccc3nccnc3c2)[C@H](C)CN1c1cc(=O)n(C)c2cn(CC#N)nc12 (stereo partly drawn) [Compound A98, 2-(7-((2S,5R)-2-ethyl-5-methyl-4-(1-(quinoxalin-6-yl)ethyl)piperazin-1-yl)-4-methyl-5-oxo-4,5-dihydro-2H-pyrazolo[4,3-b]pyridin-2-yl)acetonitrile] | 6.39 | 4.57
CC[C@H]1CN(C(C)c2ccc(C)nc2)[C@H](CC)CN1c1cc(=O)n(C)c2cn(CC#N)nc12 (single isomer, unassigned) [Compound A349a] | 6.34 | 6.31
C[C@@H]1CN(c2c(Cl)c(=O)n(C)c3cn(CC#N)nc23)[C@@H](C)CN1[C@@H](C)c1ccc2nccnc2c1 [Compound A133, 2-(6-chloro-7-((2S,5R)-2,5-dimethyl-4-((S)-1-(quinoxalin-6-yl)ethyl)piperazin-1-yl)-4-methyl-5-oxo-4,5-dihydro-2H-pyrazolo[4,3-b]pyridin-2-yl)acetonitrile] | 5.03 | < 5.00
CC(c1ccc(F)cc1C(F)(F)F)N1C[C@H](C)N(c2cc(=O)n(C)c3cn(CC#N)nc23)C[C@H]1C (single isomer, unassigned) [Compound A236b] | 6.75 | 4.11
CC[C@H]1CN(C(C)c2ccc(F)cc2C(F)(F)F)[C@H](CC)CN1c1cc(=O)n(C)c2c[nH]nc12 (single isomer, unassigned) [Compound A275b] | 5.36 | < 5.00
CCc1c(C(C)N2C[C@H](CC)N(c3cc(=O)n(C)c4cn(CC#N)nc34)C[C@H]2CC)cnn1C (single isomer, unassigned) [Compound A213b] | < 5.00 | < 5.00
CC[C@H]1CN(C(C)c2ccccc2OC)[C@H](CC)CN1c1cc(=O)n(C)c2cn(CC#N)nc12 (single isomer, unassigned) [Compound A106b] | 6.74 | < 5.00
CC[C@H]1CN(C(C)c2ncccn2)[C@H](CC)CN1c1cc(=O)n(C)c2cn(CC#N)nc12 (some centres unmarked) [Compound A130] | 5.04 | 7.82
CC[C@H]1CN(C(C)c2ccc(OC(C)C)nc2)[C@H](CC)CN1c1cc(=O)n(C)c2cn(CC#N)nc12 (some centres unmarked) [Compound A81] | 7.22 | 6.34
